From patent US20130165417A1, “METHODS AND COMPOSITIONS FOR TREATING ACE2-RELATED DISORDERS” (UNIVERSITY OF FLORIDA RESEARCH FOUNDATION, priority 2010, published 2013)
Entries after “also recorded” stand apart in the source; their conditions may differ.

How the values were obtained:
ACE2 [1] = target: T1, ACE2 (Homo sapiens, UniProt Q9BYF1); conditions: Donoghue et al. 2000, Tipnis et al. 2000; cited from earlier work
Target sequence in this assay (Q9BYF1 18-805): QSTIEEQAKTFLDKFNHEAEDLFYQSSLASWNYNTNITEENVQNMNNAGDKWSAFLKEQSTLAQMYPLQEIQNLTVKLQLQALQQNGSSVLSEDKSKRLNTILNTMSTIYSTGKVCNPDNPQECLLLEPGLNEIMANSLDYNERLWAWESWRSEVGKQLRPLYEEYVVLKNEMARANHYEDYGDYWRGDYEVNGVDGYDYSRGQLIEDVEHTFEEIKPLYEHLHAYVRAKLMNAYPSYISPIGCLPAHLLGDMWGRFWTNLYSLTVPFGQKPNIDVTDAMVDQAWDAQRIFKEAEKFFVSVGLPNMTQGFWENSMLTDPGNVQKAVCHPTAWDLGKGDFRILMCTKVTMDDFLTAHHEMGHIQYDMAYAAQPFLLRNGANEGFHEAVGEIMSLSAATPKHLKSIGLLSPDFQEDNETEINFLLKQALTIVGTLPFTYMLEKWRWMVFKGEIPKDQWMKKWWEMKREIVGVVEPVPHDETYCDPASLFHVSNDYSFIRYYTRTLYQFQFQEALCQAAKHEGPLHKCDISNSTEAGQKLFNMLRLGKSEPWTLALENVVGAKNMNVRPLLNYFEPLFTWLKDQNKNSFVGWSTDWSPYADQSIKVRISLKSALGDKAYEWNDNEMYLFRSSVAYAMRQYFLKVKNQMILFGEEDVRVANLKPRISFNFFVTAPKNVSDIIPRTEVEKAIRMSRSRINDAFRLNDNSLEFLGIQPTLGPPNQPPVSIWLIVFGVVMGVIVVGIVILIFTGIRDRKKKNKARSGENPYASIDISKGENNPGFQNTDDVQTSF

[2] = tested on: monocrotaline (MCT) treated rats; assay: Monocrotaline (MCT) treated rats, pulmonary hypertension; format: in vivo, rat
[3] = tested on: models of pulmonary hypertension; assay: Two models of pulmonary hypertension; format: in vivo
[4] = tested on: spontaneously hypertensive rats (SHRs); assay: Direct blood pressure and heart rate measurement after IV bolus, SHRs; format: in vivo, rat
Experimental: (§1) Male Wistar-Kyoto (WKY) rats and spontaneously hypertensive rats (SHRs) were purchased from Charles River Laboratories (Wilmington, Mass., USA). All procedures were performed in conformity with approved Institutional Animal Care and Use Committee protocols and University of Florida regulations.
(§2) Cannulation of the animals (WKY rats and SHRs) was performed 24 h prior to the start of the drug administration and direct blood pressure (BP) measurement. Animals were anesthetized with a mixture of ketamine, xylazine, and acepromazine (30, 6, and 1 mg/kg, respectively). The two types of the cannulae used were: 1) a polyethylene cannula (PE-50, Clay Adams) introduced into the carotid artery for direct BP measurements and 2) a silicone elastomer cannula (Helix Medical) introduced into the descending jugular vein for acute intravenous (IV) bolus injections of the drug. Both cannulae were filled with heparin saline (40 U/mL, Sigma), and sealed with stylets. The IV drug administration of diminazene aceturate (DIZE) (LKT laboratories, St. Paul, Minn., USA) and the dose-response curves in WKYs and SHRs were obtained in awake, freely moving animals after a 24 h recovery period. Doses of diminazene aceturate (DIZE) (0.04, […], 0.6, 1.25, 2.5, 5 and 10 mg/kg) were administered as an IV bolus via the jugular cannula, and BP data recording was interfaced by a PowerLab (ADlnstruments) signal transduction unit. The data analysis was done using the Chart program (PowerLab system).

Wistar Kyoto rats (WKYs) = assay: Direct blood pressure and heart rate measurement after IV bolus, WKY rats; format: in vivo, rat
Experimental: as §1, §2

ACE2 [5] = target: T1, ACE2; assay: ACE2 activity assay with fluorogenic peptide substrate; format: biochemical; set-up: purchased R&D Systems, Minneapolis, Minn; 933-ZN-10
Experimental: (§3) Recombinant ACE and ACE2 are obtained in purified form from R&D Systems, Minneapolis, Minn. (catalog ID: 929-ZN-10 and 933-ZN-10, respectively). Substrates for ACE (fluorogenic peptide V, Mca-[…](Dnp)-OH, catalog ID: ES005), and for ACE2 (fluorogenic peptide VI, Mca-YVADAPK(Dnp)-OH, catalog ID: ES007) are obtained from R&D systems. Dry compounds are resuspended in 100% DMSO to prepare 100 mM stock solutions, according to the amount of compound and its molecular weight. Gentle heating to 60-80° C. is carried out to assist their solubilization. Compounds are further diluted to 50 mM stocks if clearly difficult to dissolve.
(§4) Activity of ACE and ACE2 are measured with a Spectra Max Gemini EM Florescence Reader (Molecular Devices). The enzyme removes the c-terminal dinitrophenyl moiety that quenches the inherent fluorescence of its 7-methoxycoumain group, resulting in an increase in fluorescence in the presence of enzyme activity. Fluorescence is measured with excitation and emission spectra of 328 nm and 392 nm, respectively. Reaction mixtures are prepared in 100 μl volumes and different concentrations of compound are tested against 10 μM substrate. 10 nM enzyme in 100 mM NaCl, 75 mM Tris, 0.5 μM ZnCl2, at pH 7.4. Samples are read every 15-20 seconds for at least 30 minutes immediately after the addition of fluorogenic peptide substrate at 37° C. […]
Target sequence in this assay (Q9BYF1 18-740 limits assumed): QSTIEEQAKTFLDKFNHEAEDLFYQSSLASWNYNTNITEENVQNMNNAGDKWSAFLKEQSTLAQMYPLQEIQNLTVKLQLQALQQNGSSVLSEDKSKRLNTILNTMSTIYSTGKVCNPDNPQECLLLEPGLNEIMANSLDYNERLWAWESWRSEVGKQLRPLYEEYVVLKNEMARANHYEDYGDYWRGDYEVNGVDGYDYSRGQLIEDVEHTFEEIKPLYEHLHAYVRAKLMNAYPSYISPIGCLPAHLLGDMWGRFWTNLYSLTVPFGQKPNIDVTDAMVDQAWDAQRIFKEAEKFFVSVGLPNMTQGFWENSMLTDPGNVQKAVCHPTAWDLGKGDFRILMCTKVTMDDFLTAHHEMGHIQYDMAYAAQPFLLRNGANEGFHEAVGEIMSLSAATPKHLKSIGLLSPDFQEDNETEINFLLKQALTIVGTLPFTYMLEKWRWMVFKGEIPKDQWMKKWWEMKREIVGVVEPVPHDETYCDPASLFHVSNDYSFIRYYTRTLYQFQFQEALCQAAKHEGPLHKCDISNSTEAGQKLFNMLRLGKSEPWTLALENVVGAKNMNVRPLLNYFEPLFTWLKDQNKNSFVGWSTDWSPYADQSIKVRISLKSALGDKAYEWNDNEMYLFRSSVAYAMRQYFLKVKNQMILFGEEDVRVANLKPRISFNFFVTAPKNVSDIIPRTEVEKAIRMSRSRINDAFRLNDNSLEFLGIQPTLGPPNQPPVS

myocardial infarction = assay: Myocardial infarction model of cardiac disease; format: in vivo
Recombinant ACE = target: T2, Recombinant ACE (Homo sapiens, UniProt P12821); assay: ACE activity assay with fluorogenic peptide substrate; format: biochemical; conditions: FIG. 2
T2 construct: purchased R&D Systems, Minneapolis, Minn; 929-ZN-10
T2 sequence (P12821 30-1306): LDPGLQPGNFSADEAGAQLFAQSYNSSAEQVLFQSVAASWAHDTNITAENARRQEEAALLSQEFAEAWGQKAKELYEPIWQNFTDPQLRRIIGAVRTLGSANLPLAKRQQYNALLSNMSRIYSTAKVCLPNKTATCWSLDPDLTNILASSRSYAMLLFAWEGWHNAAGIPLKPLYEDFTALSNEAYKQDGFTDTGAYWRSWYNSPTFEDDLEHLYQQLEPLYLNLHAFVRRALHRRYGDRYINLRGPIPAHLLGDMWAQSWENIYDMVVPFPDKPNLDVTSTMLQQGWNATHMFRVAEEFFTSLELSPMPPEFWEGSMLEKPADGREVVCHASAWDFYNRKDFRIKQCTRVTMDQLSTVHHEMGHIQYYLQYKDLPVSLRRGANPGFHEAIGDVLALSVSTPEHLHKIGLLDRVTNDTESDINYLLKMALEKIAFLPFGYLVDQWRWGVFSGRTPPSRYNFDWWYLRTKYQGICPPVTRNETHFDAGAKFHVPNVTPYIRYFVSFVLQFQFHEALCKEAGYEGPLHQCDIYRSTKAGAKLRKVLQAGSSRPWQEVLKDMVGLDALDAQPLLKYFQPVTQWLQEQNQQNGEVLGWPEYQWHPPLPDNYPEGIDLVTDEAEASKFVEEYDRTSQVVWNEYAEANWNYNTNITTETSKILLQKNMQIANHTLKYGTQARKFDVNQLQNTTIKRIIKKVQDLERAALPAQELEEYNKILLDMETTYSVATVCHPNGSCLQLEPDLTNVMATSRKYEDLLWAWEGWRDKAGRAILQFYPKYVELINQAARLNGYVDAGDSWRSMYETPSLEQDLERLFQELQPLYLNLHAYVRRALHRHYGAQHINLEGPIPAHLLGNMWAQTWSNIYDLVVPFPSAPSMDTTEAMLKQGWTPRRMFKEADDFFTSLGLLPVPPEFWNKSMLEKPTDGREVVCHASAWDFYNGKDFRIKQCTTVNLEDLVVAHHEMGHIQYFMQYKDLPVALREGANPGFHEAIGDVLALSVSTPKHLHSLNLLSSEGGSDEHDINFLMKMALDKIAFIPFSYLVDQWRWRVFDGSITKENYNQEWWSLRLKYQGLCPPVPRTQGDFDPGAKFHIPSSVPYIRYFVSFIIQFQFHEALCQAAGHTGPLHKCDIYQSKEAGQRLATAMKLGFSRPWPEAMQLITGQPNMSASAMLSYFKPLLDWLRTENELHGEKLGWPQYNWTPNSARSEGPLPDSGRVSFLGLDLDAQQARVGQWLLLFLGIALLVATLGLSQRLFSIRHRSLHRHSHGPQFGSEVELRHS
Experimental: as §3, §4

[6] = tested on: Endothelial progenitor cells harvested from pulmonary hypertensive patients; assay: Function of endothelial progenitor cells from pulmonary hypertensive patients; format: cell-based, human
Source text: Another important finding is the effect of DIZE on stem cell function. Endothelial progenitor cells harvested from pulmonary hypertensive patients are dysfunctional and have decreased ability to repair vascular damage induced by the disease.

C[C@H](CS)C(=O)N1CCC[C@H]1C(=O)O [captopril]
effect on activity of ACE2 (ACE2 [1]): do not significantly affect

N=C(N)c1ccc(N=NNc2ccc(C(=N)N)cc2)cc1 [DIZE, 4,4′-(1-Triazene-1,3-diyl)bis(benzenecarboximidamide)]
MCT-induced right ventricular fibrosis ([2]; FIG. 6): causes reversal | Right Ventricular Systolic Pressure (RVSP) and Right Ventricular Hypertrophy (RVH), prevention ([2]; MCT treated rats, FIG. 4): prevents increase | RVSP and RVH, reversal ([2]; MCT-treated rats, FIG. 5): reverses increases | progression of pathophysiology ([3]; administered after the development of pulmonary hypertension): arrested | development of the disorder ([3]; pretreatment): completely prevents the development of these disorders | fibrosis ([3]; pretreatment): virtually absent | pulmonary pressure ([3]; pretreatment): nearly normalized | effect on heart rate ([4]; SHR, acute IV bolus): does not affect the heart rate | reduction of mean arterial pressure (MAP) ([4]; SHRs, 5 mg/kg intravenous, n=6): 85±11 mmHg | change in mean arterial pressure (MAP) ([4]; SHRs, intravenous administration, result in words): transient and dose dependent decrease; also recorded: greater reduction in blood pressure in SHRs compared to WKY control rats | reduction of mean arterial pressure (MAP) (Wistar Kyoto rats (WKYs); WKY rats, 5 mg/kg intravenous, n=6): 50±9 mmHg | effect on heart rate (Wistar Kyoto rats (WKYs); WKY, acute IV bolus): does not affect the heart rate | change in mean arterial pressure (MAP) (Wistar Kyoto rats (WKYs); WKYs, intravenous administration, result in words): transient and dose dependent decrease | maximal increase in ACE2 activity (Vmax) (ACE2 [5]; observed with 50 μM): 2.3 fold | effect on ACE2 activity (ACE2 [5]; result in words): dose-dependent increase in ACE2 activity; also recorded: enhances specifically the ACE2 enzyme activity | MI-induced cardiac dysfunctions (myocardial infarction; FIG. 3): attenuates | cardiac function (myocardial infarction; pretreatment): significantly improves cardiac function | development of the disorder (myocardial infarction; pretreatment): completely prevents the development of these disorders | infarct area (myocardial infarction; pretreatment): reduces infarct area | effect on ACE activity (Recombinant ACE): increases ACE2 but not ACE activity | endothelial progenitor cell dysfunction (ability to repair vascular damage) [6]: significantly improves this dysfunction
